# Measurements published in patent publication US20070134261A1, “Effectors of innate immunity” (priority 2001, published 2007).
# Read-outs that look alike come from different tables or passages of the source. Residues, ends and D or L forms follow the SMILES beside them. No end group written: not given here.
# Experiments:
# human PBMC = assay: TLR agonist / cytokine induced cytokine secretion by PBMC (ELISA, multiplex bead immunoassay); type: cell-based
# Protocol: All assays were performed in triplicate.
# [1] = test system: human bronchial epithelial cells (HBE); assay: LDH release assay (Cytotoxicity Detection Kit); type: cell-based; settings: 100 μg/ml, 24 hours; no peptide control 1.0 ± 0.05
# Protocol: (§1) The potential toxicity of the peptides was measured in two ways. First, the Cytotoxicity Detection Kit (Roche) (Lactate dehydrogenase-LDH) Assay was used. It is a colorimetric assay for the quantification of cell death and cell lysis, based on the measurement of LDH activity released from the cytosol of damaged cells into the supernatant. LDH is a stable cytoplasmic enzyme present in all cells and it is released into the cell culture supernatant upon damage of the plasma membrane. An increase in the amount of dead or plasma membrane-damaged cells results in an increase of the LDH enzyme activity in the culture supernatant as measured with an ELISA plate reader, OD490 nm (the amount of color formed in the assay is proportional to the number of lysed cells). In this assay, human bronchial epithelial cells (I6HBEo14, HBE) cells were incubated with 100 μg of peptide for 24 hours, the supernatant removed and tested for LDH. The other assay used to measure toxicity of the cationic peptides was the WST-1 assay (Roche). This assay is a colorimetric assay for the quantification of cell proliferation and cell viability, based on the cleavage of the tetrazolium salt WST-1 by mitochondrial dehydrogenases in viable cells (a non-radioactive alternative to the [^3H]-thymidine incorporation assay). In this assay, HBE cells were incubated with 100 μg of peptide for 24 hours, and then 10 μl/well Cell Proliferation Reagent WST-1 was added. The cells are incubated with the reagent and the plate is then measured with an ELISA plate reader, OD490 nm.
# [2] = type: cell-based
# HBE cells = assay: WST-1 assay (cell viability); type: cell-based, human
# Protocol: as §1
# [3] = test system: RAW 264.7 mouse macrophage cells; type: cell-based; settings: Peptide 20 μg/ml; 100 ng/ml E. coli 0111:B4 LPS, 6 h
# [4] = test system: A549 human epithelial cells; assay: Induction of chemokines (IL-8, MCP-1) in A549 cells (ELISA); type: cell-based; settings: peptide 10 ug/ml, 24 hr
# Protocol: The murine macrophage cell line RAW 264.7, THP-1 cells (human monocytes), a human epithelial cell line (A549), human bronchial epithelial cells (16HBEo14), and whole human blood were used. HBE cells were grown in MEM with Earle's. THP-1 cells were grown and maintained in RPMI 1640 medium. The RAW and A549 cell lines were maintained in DMEM supplemented with 10% fetal calf serum. […] DMEM was aspirated from cells grown overnight and replaced with fresh medium. After incubation of the cells with peptide, the release of chemokines into the culture supernatant was determined by ELISA (R&D Systems, Minneapolis, Minn.).
# A549 epithelial cells = assay: Human Operon arrays (PRHU04-S1) of A549 cells treated with peptide alone (Tables 31-37, 53); settings: peptide 50 μg/ml, 4 h, A549 cells
# [5] = Escherichia coli, overnight, 96-well plate
# [6] = Staphylococcus aureus, overnight, 96-well plate
# [7] = Citobacter rhodensis, overnight, 96-well plate
# [8] = Enterohaemorrhagic E. coli, overnight, 96-well plate
# [9] = Pseudomonas aeruginosa, overnight, 96-well plate
# [10] = Salmonella enteritidis ssp. typhimurium, overnight, 96-well plate
Compound,LDH Release (OD490 nm) [1] [OD490 nm],"MIC, C. rhod. ([2]; 24 h) [mg/L]","MIC, E. coli ([2]; 24 h) [mg/L]","MIC, EHEC ([2]; 24 h) [mg/L]","MIC, S. aureus ([2]; 24 h) [mg/L]","MIC, S. typhim. ([2]; 24 h) [mg/L]",OD490 nm (WST-1 cell viability) (HBE cells) [OD490 nm],"MIC, P. aerug. ([2]; 24 h) [mg/L]",further results
"5′-TCATGACGTTCCTGACGTT-3′ (chemistry not given here) [CpG, reference compound]",,,,,,,,,"IL-6, Ave pg/ml (human PBMC; 4 hr, CpG −SEQ ID NO: 1): <7 pg/mL; IL-8, Ave pg/ml (human PBMC; 4 hr, CpG −SEQ ID NO: 1): 20 pg/mL; TNF-α, Ave pg/ml (human PBMC; 4 hr, CpG −SEQ ID NO: 1): 28 pg/mL; IL-6, Ave pg/ml (human PBMC; 24 hr, CpG −SEQ ID NO: 1): 66 pg/mL; IL-8, Ave pg/ml (human PBMC; 24 hr, CpG −SEQ ID NO: 1): 339 pg/mL; TNF-α, Ave pg/ml (human PBMC; 24 hr, CpG −SEQ ID NO: 1): 28 pg/mL"
CC[C@H](C)[C@H](NC(=O)CNC(=O)[C@H](CCCNC(=N)N)NC(=O)[C@H](CCSC)NC(=O)[C@H](C)NC(=O)[C@@H](NC(=O)[C@H](CCCNC(=N)N)NC(=O)[C@H](CCCCN)NC(=O)[C@@H](NC(=O)[C@H](CS)NC(=O)[C@@H](NC(=O)[C@@H](N)CCCNC(=N)N)[C@@H](C)O)C(C)C)C(C)C)C(=O)N[C@H](C(=O)N[C@@H](CCCNC(=N)N)C(=O)N[C@@H](CCCCN)C(=O)N[C@@H](CCCNC(=N)N)C(=O)N[C@@H](CS)C(=O)N[C@@H](CCCNC(=N)N)C(=O)O)[C@@H](C)CC [SEQ ID NO: 33] (H-RTCVKRVAMRGIIRKRCR-OH; N-terminus and C-terminus assumed),1.03 ± 0.05,64,16,8,32,16,1.75 ± 0.21,,Inhibition of TNF-α [3]: 62.1 ± 0.08%; IL-8 [4]: 0.328 ng/mL
ELPLKRGRVPVE [SEQ ID NO: 16],0.91 ± 0.04,,,,,,1.39 ± 0.26,,"ID#:ctrl intensity ratio, M14565 cytochrome P450 (A549 epithelial cells): 10.1"
IL-1β,,,,,,,,,"IL-6, Ave pg/ml (human PBMC; 4 hr, IL-1β −SEQ ID NO: 1): 39 pg/mL; IL-8, Ave pg/ml (human PBMC; 4 hr, IL-1β −SEQ ID NO: 1): 124 pg/mL; TNF-α, Ave pg/ml (human PBMC; 4 hr, IL-1β −SEQ ID NO: 1): 97 pg/mL; IL-6, Ave pg/ml (human PBMC; 24 hr, IL-1β −SEQ ID NO: 1): 645 pg/mL; IL-8, Ave pg/ml (human PBMC; 24 hr, IL-1β −SEQ ID NO: 1): 3034 pg/mL; TNF-α, Ave pg/ml (human PBMC; 24 hr, IL-1β −SEQ ID NO: 1): 20 pg/mL"
"KKSPIAPAIPWSR (Cationic peptide) [SEQ ID NO: 8, Formula A cationic peptide]",,,,,,,,,"MIC, E. coli [2, 5]: >; MIC, S. aureus [2, 6]: >; Inhibition of TNF-α [3]: 39.3 ± 1.9%"
KWKHALMKAHMLWHMIFHTALKPISS [SEQ ID NO: 52],,2,8,2,,8,,32,"MIC, S. aureus [2, 6]: >; IL-8 [4]: 0.207 ng/mL"
KWKKWAHSPRKVLTRIFHTALKPISS [SEQ ID NO: 50],,16,8,8,,16,,16,"MIC, S. aureus [2, 6]: >; IL-8 [4]: 0.141 ng/mL"
KWKRGAHRFMKFLSTIFHTALKPISS [SEQ ID NO: 49],,4,4,4,,8,,16,"MIC, S. aureus [2, 6]: >; Inhibition of TNF-α [3]: 86.9 ± 0.69%; IL-8 [4]: 0.301 ng/mL"
KWKSLVMMFKKPARRIFHTALKPISS [SEQ ID NO: 51],,,,,,,,,"MIC, C. rhod. [2, 7]: 4 mg/L; MIC, EHEC [2, 8]: 8 mg/L; MIC, E. coli [2, 5]: 4 mg/L; MIC, P. aerug. [2, 9]: 8 mg/L; MIC, S. typhim. [2, 10]: 32 mg/L; MIC, S. aureus [2, 6]: >; IL-8 [4]: 0.255 ng/mL"
KWKSYAHTIMSPVRLVFHTALKPISS [SEQ ID NO: 54],,,,,,,,,"MIC, C. rhod. [2, 7]: 16 mg/L; MIC, EHEC [2, 8]: 32 mg/L; MIC, E. coli [2, 5]: 64 mg/L; MIC, P. aerug. [2, 9]: 16 mg/L; MIC, S. typhim. [2, 10]: 64 mg/L; MIC, S. aureus [2, 6]: >; Inhibition of TNF-α [3]: 64 ± 0.73%; IL-8 [4]: 0.133 ng/mL"
PAM3,,,,,,,,,"IL-1β, Ave pg/ml (human PBMC; 4 hr, PAM3 −SEQ ID NO: 1): 34 pg/mL; IL-6, Ave pg/ml (human PBMC; 4 hr, PAM3 −SEQ ID NO: 1): 435 pg/mL; IL-8, Ave pg/ml (human PBMC; 4 hr, PAM3 −SEQ ID NO: 1): 738 pg/mL; TNF-α, Ave pg/ml (human PBMC; 4 hr, PAM3 −SEQ ID NO: 1): 830 pg/mL; IL-1β, Ave pg/ml (human PBMC; 24 hr, PAM3 −SEQ ID NO: 1): 512 pg/mL; IL-6, Ave pg/ml (human PBMC; 24 hr, PAM3 −SEQ ID NO: 1): 7734 pg/mL; IL-8, Ave pg/ml (human PBMC; 24 hr, PAM3 −SEQ ID NO: 1): 7620 pg/mL; TNF-α, Ave pg/ml (human PBMC; 24 hr, PAM3 −SEQ ID NO: 1): 2334 pg/mL"
RAAFKWAWAWWRRK [SEQ ID NO: 23],1.26 ± 0.46,4,4,4,8,16,1.14 ± 0.24,8,
RAPYWPWAWARPRK [SEQ ID NO: 21],1.06 ± 0.04,32,64,32,64,64,1.28 ± 0.07,96,
RKMVKVDVRGIMIRKDRR [SEQ ID NO: 29],0.99 ± 0.02,32,2,4,,16,1.75 ± 0.09,,
RPAWKYWWPWPWPRRK [SEQ ID NO: 22],1.29 ± 0.12,4,8,4,12,8,1.33 ± 0.07,24,"ID#:ctrl intensity ratio, X65962 cytochrome P-450 (A549 epithelial cells): 5.1"
RPRYPWWPWWPYRPRK [SEQ ID NO: 19],1.08 ± 0.02,4,8,4,16,64,1.42 ± 0.15,16,"ID#:ctrl intensity ratio, X65962 cytochrome P-450 (A549 epithelial cells): 3.8"
RRAWWKAWWARRK [SEQ ID NO: 20],1.05 ± 0.03,16,8,8,8,8,1.61 ± 0.21,8,
RRDCRRVMVRGIDIKAK [SEQ ID NO: 36],0.85 ± 0.04,32,32,16,,32,1.58 ± 0.05,,
RREAIRRVAMRGRDMKRMRR [SEQ ID NO: 31],0.98 ± 0.03,,,64,,,1.84 ± 0.06,128,
RRRWKWAWPRRK [SEQ ID NO: 24],1.05 ± 0.01,16,16,4,16,16,1.27 ± 0.16,4,
TNF-α,,,,,,,,,"IL-1β, Ave pg/ml (human PBMC; 4 hr, TNF-α −SEQ ID NO: 1): 74 pg/mL; IL-8, Ave pg/ml (human PBMC; 4 hr, TNF-α −SEQ ID NO: 1): 54 pg/mL; IL-1β, Ave pg/ml (human PBMC; 24 hr, TNF-α −SEQ ID NO: 1): 94 pg/mL; IL-6, Ave pg/ml (human PBMC; 24 hr, TNF-α −SEQ ID NO: 1): 9 pg/mL; IL-8, Ave pg/ml (human PBMC; 24 hr, TNF-α −SEQ ID NO: 1): 4410 pg/mL"
